Data from patent publication US8022053B2, “Oral solid dosage forms containing a low dose of estradiol” (Bayer Schering Pharma Aktiengesellschaft, priority 2004, dated 2011).
Marks after values point to notes of the source that are not given here.

What was measured:
[1] = daily oral administration of 1 to 3 mg of estradiol; cited from earlier work
[2] = In vitro dissolution of micronised estradiol and estradiol/polyvinylpyrrolidone powder mixtures (USP apparatus 2, paddle); type: physicochemical; details: 900 ml purified water, 37° C., 50 rpm, powder corresponding to 100 μg estradiol hemihydrate
Description: The dissolution characteristics of micronised estradiol and mixtures of micronised estradiol and polyvinylpyrrolidone, respectively, were investigated in an in vitro dissolution test system. The dissolution tester was a USP apparatus 2 (paddle system) (See <711> of USP 27) using 900 ml of purified water temperated at 37° C. as the dissolution media and a rotation speed of 50 rpm. The estradiol and the mixtures in powdery form were placed into the dissolution vessels in an amount corresponding to 100 μg of micronised estradiol hemihydrate.

[3] = Bioavailability study, serum levels of estradiol after a single oral tablet; type: in vivo, healthy postmenopausal women; details: fasted, for an extended period of time
Description: A bioavailability study was conducted in order to determine the serum levels of estradiol after single administration of a tablet formulation identical to the one described in Example 2 containing 190 μg and 100 μg of micronised estradiol hemihydrate, respectively. The study design was open labelled, 3 periods, 3 treatments, cross-over design with a single administration of each treatment and two weeks' washout between each period. The study population were 24 healthy postmenopausal women, age 55-75. Fasted condition was held.
The full-drawn line refers to the mean serum levels of estradiol achieved by administering a single dose of 190 μg to the study population, and the dotted line refers to the mean serum levels of estradiol achieved by administering a single dose of 100 μg to the study population. The mean serum level of endogenous estradiol was 3-3.5 pg/ml.

| Amount of estradiol (μg) dissolved after 5 min ([2]; 5 min) | Amount of estradiol (μg) dissolved after 10 min ([2]; 10 min) | Amount of estradiol (μg) dissolved after 20 min ([2]; 20 min) | Amount of estradiol (μg) dissolved after 30 min ([2]; 30 min) | Amount of estradiol (μg) dissolved after 60 min ([2]; 60 min) [µg] | Mean serum levels of estradiol ([3]; Example 2 tablet with 100 μg (printed 100 pg)) [pg/mL] | Mean serum levels of estradiol ([3]; Example 2 tablet with 190 μg) [pg/mL] | Structure (SMILES) | Bioavailability [1] |
| --- | --- | --- | --- | --- | --- | --- | --- | --- |
|  |  |  |  |  |  |  | C[C@]12CC[C@@H]3c4ccc(O)cc4CC[C@H]3[C@@H]1CC[C@@H]2O [estradiol] | 3-5% |
| <3* μg | <3* μg | <3* μg | <3* μg | <3 | 5 to 20 | 5 to 20 | C[C@]12CC[C@@H]3c4ccc(O)cc4CC[C@H]3[C@@H]1CC[C@@H]2O [micronised estradiol hemihydrate, estradiol hemihydrate] |  |
